Assay type in all cases: functional
Holding throughout (settings): 168 h, read-out: GI

The subject of assay [1] is Fusarium oxysporum. In words: Antifungal activity against Fusarium oxysporum assessed as mycelial growth inhibition at 1000 ppm at 28 +/-2 degC after 7 days by food poison technique.
Assay [2] deals with Colletotrichum falcatum. As to the kind of experiment: Antifungal activity against Glomerella tucumanensis assessed as mycelial growth inhibition at 10 ppm at 28 +/-2 degC after 7 days by food poison technique.
The test system of assay [3] is Curvularia pallescens. As to the kind of experiment: Antifungal activity against Cochliobolus pallescens assessed as mycelial growth inhibition at 10 ppm at 28 +/-2 degC after 7 days by food poison technique.
Assay [4] deals with Curvularia pallescens. As to the kind of experiment: Antifungal activity against Cochliobolus pallescens assessed as mycelial growth inhibition at 1000 ppm at 28 +/-2 degC after 7 days by food poison technique.
Assay [5] relates to Fusarium oxysporum. In words: Antifungal activity against Fusarium oxysporum assessed as mycelial growth inhibition at 100 ppm at 28 +/-2 degC after 7 days by food poison technique.
In assay [6] the test system is Curvularia pallescens. In words: Antifungal activity against Cochliobolus pallescens assessed as mycelial growth inhibition at 100 ppm at 28 +/-2 degC after 7 days by food poison technique.
Assay [7] deals with Colletotrichum falcatum. As to the kind of experiment: Antifungal activity against Glomerella tucumanensis assessed as mycelial growth inhibition at 100 ppm at 28 +/-2 degC after 7 days by food poison technique.
Assay [8] relates to Fusarium oxysporum. In words: Antifungal activity against Fusarium oxysporum assessed as mycelial growth inhibition at 10 ppm at 28 +/-2 degC after 7 days by food poison technique.
Assay [9] relates to Colletotrichum falcatum. As to the kind of experiment: Antifungal activity against Glomerella tucumanensis assessed as mycelial growth inhibition at 1000 ppm at 28 +/-2 degC after 7 days by food poison technique.

Regarding `CCOP(=O)(OCC)O/C(=N\N=C1/C(=O)Nc2ccccc21)c1ccc(Cl)cc1`, the inhibition of growth at 1000 ppm worked out at 72.6% in [1], 71.2% in [4] and 69.6% in assay [9]. Further, the inhibition of growth at 10 ppm in assay [2] came to 56.8%; in assay [3], 51.6%; in [8], 54.2%. In addition, the inhibition of growth at 100 ppm in [5] worked out at 67.8%; in assay [6] it was 62.4%; in assay [7], 64.2%.
`CCOP(=O)(OCC)O/C(=N\N=C1/C(=O)Nc2ccccc21)c1ccc([N+](=O)[O-])cc1`: the inhibition of growth at 1000 ppm was determined as 56.2% in [1], 51.8% in assay [4] and 54.2% in assay [9]. Besides, the inhibition of growth at 10 ppm is 30.2% in assay [2], 26.8% in assay [3] and 29.4% in [8]. The inhibition of growth at 100 ppm in assay [5] worked out at 39.6%; in assay [6] it was 38.6%; in assay [7], 40.1%.
Regarding `CCOP(=S)(OCC)O/C(=N\N=C1/C(=O)Nc2ccccc21)c1ccccc1`, the inhibition of growth at 1000 ppm is 74.2% in assay [1], 73.5% in assay [4] and 70.8% in [9]. In addition, the results for the inhibition of growth at 10 ppm in assay [2], in assay [3] and in assay [8] were 58.2%, 55.7% and 55.2%, respectively. The inhibition of growth at 100 ppm amounted to 69.2% in assay [5], 65.8% in assay [6] and 65.1% in assay [7].
On to `CCOP(=S)(OCC)O/C(=N\N=C1/C(=O)Nc2ccccc21)c1ccc(Cl)cc1`, for which the inhibition of growth at 1000 ppm in assay [1] is 85.8%; in assay [4], 85.8%; in assay [9], 88.6%. Moreover, the inhibition of growth at 10 ppm in assay [2] amounted to 60.5%; in assay [3], 61.6%; in assay [8] it was 68.6%. Besides, the inhibition of growth at 100 ppm in assay [5] amounted to 78.2%; in assay [6], 71.6%; in [7] it was 72.4%.
On to `CCOP(=S)(OCC)O/C(=N\N=C1/C(=O)Nc2ccccc21)c1ccc([N+](=O)[O-])cc1`, for which the inhibition of growth at 1000 ppm in assay [1] came to 58.2%; in assay [4], 57.2%; in assay [9], 58.2%. The inhibition of growth at 10 ppm was found to be 39.8% in [2], 36.2% in [3] and 40% in [8]. The inhibition of growth at 100 ppm in assay [5] came out at 47.2%; in assay [6], 45.6%; in [7], 46.2%.
Regarding `CCOP(=O)(OCC)O/C(=N\N=C1/C(=O)Nc2ccccc21)c1ccc(OP(=O)(OCC)OCC)cc1`, the inhibition of growth at 1000 ppm stood at 71.5% in [1], 67.8% in assay [4] and 69.2% in assay [9]. Also, the inhibition of growth at 10 ppm amounted to 52.3% in assay [2], 51.8% in assay [3] and 52.6% in [8]. Besides, the inhibition of growth at 100 ppm amounted to 58% in assay [5], 51.7% in assay [6] and 62.4% in [7].
As for `CCOP(=S)(OCC)O/C(=N\N=C1/C(=O)Nc2ccccc21)c1ccc(OP(=S)(OCC)OCC)cc1`, the inhibition of growth at 1000 ppm in [1] stood at 82.4%; in [4] it was 81.4%; in assay [9] it was 87%. In addition, the values for the inhibition of growth at 10 ppm in assay [2], in assay [3] and in assay [8] were 58.2%, 56% and 57.1%, respectively. For the same compound, the results for the inhibition of growth at 100 ppm in assay [5], in assay [6] and in [7] were 68.2%, 66.2% and 68.2%, respectively.
For the compound `CCOP(=O)(OCC)O/C(=N\N=C1/C(=O)Nc2ccccc21)c1ccccc1P(=O)(OCC)OCC`, the results for the inhibition of growth at 1000 ppm in assay [1], in assay [4] and in assay [9] were 66.5%, 65.6% and 68.8%, respectively. Moreover, the inhibition of growth at 10 ppm amounted to 51.5% in assay [2], 47.7% in [3] and 49.8% in assay [8]. Also, the inhibition of growth at 100 ppm in assay [5] was 56.2%; in assay [6], 56.7%; in assay [7], 59.9%.
`CCOP(=S)(OCC)O/C(=N\N=C1/C(=O)Nc2ccccc21)c1ccccc1P(=S)(OCC)OCC`: the inhibition of growth at 1000 ppm in [1] is 82.8%; in [4], 80.5%; in assay [9], 86.6%. Also, the inhibition of growth at 10 ppm in assay [2] came out at 57.6%; in assay [3], 54.2%; in assay [8], 55.2%. For the same compound, the inhibition of growth at 100 ppm in assay [5] is 66.5%; in assay [6], 64.2%; in [7] it was 67.2%.
As to `CCOP(=O)(OCC)O/C(COc1ccccc1)=N\N=C1/C(=O)Nc2ccccc21`, the figures for the inhibition of growth at 1000 ppm in assay [1], in [4] and in [9] were 69.6%, 68.8% and 70.2%, respectively. The inhibition of growth at 10 ppm stood at 51.2% in assay [2], 50.1% in assay [3] and 50% in assay [8]. Further, the inhibition of growth at 100 ppm in [5] turned out to be 59.2%; in assay [6], 58.2%; in assay [7], 61.6%.
`CCOP(=O)(OCC)O/C(COc1ccc(Cl)cc1)=N\N=C1/C(=O)Nc2ccccc21`: the values for the inhibition of growth at 1000 ppm in [1], in assay [4] and in assay [9] were 85.6%, 82.6% and 80.2%, respectively. Moreover, the inhibition of growth at 10 ppm in assay [2] came to 64.8%; in assay [3] it was 60.9%; in [8], 61.8%. Also, the inhibition of growth at 100 ppm in assay [5] was 74.2%; in assay [6] it was 71.8%; in assay [7] it was 71.6%.
With `CCOP(=O)(OCC)O/C(COc1ccc([N+](=O)[O-])cc1)=N\N=C1/C(=O)Nc2ccccc21`, the inhibition of growth at 1000 ppm came to 61.5% in [1], 55.6% in assay [4] and 60.2% in [9]. Besides, the inhibition of growth at 10 ppm in assay [2] amounted to 38.6%; in assay [3] it was 34%; in [8], 37.2%. Also, the inhibition of growth at 100 ppm in [5] is 45.8%; in [6], 42.8%; in assay [7] it was 48.6%.
For the compound `CCOP(=S)(OCC)O/C(COc1ccccc1)=N\N=C1/C(=O)Nc2ccccc21`, the inhibition of growth at 1000 ppm amounted to 76.8% in assay [1], 74.2% in assay [4] and 75.2% in [9]. The inhibition of growth at 10 ppm in assay [2] was found to be 56.2%; in assay [3], 52.6%; in [8] it was 54%. Further, the inhibition of growth at 100 ppm stood at 69.1% in [5], 62.7% in assay [6] and 67% in assay [7].
For the compound `CCOP(=S)(OCC)O/C(COc1ccc([N+](=O)[O-])cc1)=N\N=C1/C(=O)Nc2ccccc21`, the inhibition of growth at 1000 ppm in [1] amounted to 67.8%; in assay [4], 65.6%; in [9] it was 68.4%. Also, the inhibition of growth at 10 ppm turned out to be 48.2% in assay [2], 40.6% in assay [3] and 44.6% in assay [8]. Besides, the inhibition of growth at 100 ppm in [5] turned out to be 52.6%; in assay [6], 52.8%; in [7] it was 56.2%.
Turning to `CCOP(=O)(OCC)O/C(COc1ccc(OP(=O)(OCC)OCC)cc1)=N\N=C1/C(=O)Nc2ccccc21`, the inhibition of growth at 1000 ppm in assay [1] came to 78.6%; in assay [4], 76.4%; in assay [9] it was 80.6%. The inhibition of growth at 10 ppm in assay [2] is 61.5%; in assay [3], 62.8%; in assay [8], 60.2%. Further, the inhibition of growth at 100 ppm in assay [5] is 69.2%; in assay [6], 70%; in assay [7], 70.2%.
As to `CCOP(=O)(OCC)O/C(COc1ccccc1P(=O)(OCC)OCC)=N\N=C1/C(=O)Nc2ccccc21`, the inhibition of growth at 1000 ppm came out at 74.2% in [1], 71.2% in [4] and 78.2% in assay [9]. Further, the inhibition of growth at 10 ppm in [2] is 60.2%; in assay [3], 57.2%; in assay [8], 58.6%. In addition, the results for the inhibition of growth at 100 ppm in [5], in assay [6] and in [7] were 64%, 64.6% and 67.4%, respectively.
Take `CCOP(=S)(OCC)O/C(COc1ccccc1P(=S)(OCC)OCC)=N\N=C1/C(=O)Nc2ccccc21`: the inhibition of growth at 1000 ppm in [1] is 92.8%; in assay [4], 93.8%; in assay [9] it was 95.6%. In addition, the values for the inhibition of growth at 10 ppm in [2], in [3] and in assay [8] were 72.5%, 72.8% and 71.6%, respectively. Moreover, the inhibition of growth at 100 ppm came out at 80% in assay [5], 79.9% in assay [6] and 81.2% in [7].

Values taken from ChEMBL document CHEMBL3045645, “Organophosphorus derivatives containing isatin-3-hydrazones as chemotherapeutants against fungal pathogens of sugarcane” (2008).
